Tested on: HEK293 cells proteome
Test: Tandem-Mass-Tagging global (whole) proteomics in HEK293 cells
Assay type: cell-based, human
Conditions: 10 nM
Description: For unbiased degradation profiling of compounds at the proteome level, HEK293 cells were seeded onto 10 cm plates at a density of 2–2.5 × 10^6 cells per plate. […] After treatment, cells were washed twice with PBS (Gibco), collected in Lobinding tubes (Merck) and lysed in RIPA buffer supplemented with Protease (Roche) and Phosphatase (Roche) inhibitors as previously described for 20 min on ice. Lysates were cleared via centrifugation and protein concentrations were determined by using Pierce BCA assay (Thermo Scientific). Similarly, brain and liver tissues from control and KH1 (24) treated mice were lysed as described above. One hundred and fifty micrograms of protein from tissues or cells for each condition was aliquoted into LoBind tubes (Eppendorf) and the STRAP (Protifi) protocol was followed according to manufacturers’ instructions with slight modifications. Briefly, liquid protein samples mixed with 2× Lysis buffer (10%SDS, 100 mM TEAB pH 8.5), protein was reduced with 5 mM DTT final concentration at 55 °C for 15 min, alkylated (final concentration 20 mM IAA or CAA) at room temperature for 10 min and then acidified (12% phosphoric acid). Protein was then trapped into S-trap columns and washed with S-trap binding/wash buffer (100 mM TEAB in 90% methanol) via centrifugation at 4000 × g for 30 s. Cleaned proteins then went through tryptic digestion (Trypsin (Thermo Scientific) in 50 mM TEAB) overnight at 37 °C or 2 h at 47 °C. Digested peptides were sequentially eluted in 80 µL of 50 mM TEAB (Sigma–Aldrich), 0.2% formic acid (Sigma–Aldrich) and 50% acetonitrile (Sigma–Aldrich). Elutions were pooled and dried down. Dried and cleaned peptides were reconstituted in 110 µL of 100 mM TEAB. TMT-16-plex reagent (Thermo Scientific) was brought into room temperature and reconstituted in 40 µL of anhydrous acetonitrile. TMT reagent solution was transferred to the peptides and incubated on thermoshaker (Eppendorf) at 400 rpm at room temperature for 1 h in the dark. Peptides were quenched by the addition of 8 µL of 5% Hydroxylamine for 1 h at room temperature. TMT-labelled peptides were pooled together and dried down in the speedVac for downstream processing. […]
The dried peptides were reconstituted in 0.1% formic acid and analyzed on an Orbitrap Ascend mass spectrometer coupled to a Thermo Fisher Scientific Vanquish Neo UHPLC. […] The precursor ions for MS2 were isolated using a Quadrupole mass filter at a 0.7 Da isolation width, fragmented using a normalised 30% HCD of ion routing multipole and analyzed using ion trap. The top 10 MS2 fragment ions in a subsequent scan were isolated and fragmented using HCD at a 55% normalised collision energy and analyzed using an Orbitrap mass analyser at a 60,000 resolution, in the scan range of 100–500 m/z. […]

Cn1nc(N2CCC(=O)NC2=O)c2ccc(CN3CCN(Cc4ccc(-c5cn(-c6ccc(-c7cn8nccc(C(=O)Nc9cnccc9N9CCOCC9)c8n7)cc6)nn5)nc4)CC3)cc21 [compound 24]
proteome-wide selectivity (4 and 24 h, vs DMSO and negative control 27): consistent proteome-wide selectivity for GSK3α and GSK3β
proteome-wide selectivity (2 h, vs DMSO and negative control): exquisite selectivity for GSK3 paralogs
β-catenin abundance, log2 fold change (4 h, p < 0.0005): +0.63
β-catenin abundance, log2 fold change (24 h, p < 0.005): +0.89
